Measurements: paper PMC11020070, “Discovery of Protease-Activated Receptor 4 (PAR4)-Tethered Ligand Antagonists Using Ultralarge Virtual Screening” (ACS Pharmacology & Translational Science, 2024)
“Also recorded” adds a separate entry of the source.

Key:
[1] = target: thrombin (Homo sapiens, UniProt P00734); assay: Fluorometric assay of in vitro thrombin activity; assay type: biochemical
Description: The enamine-purchased 7 compound was confirmed using mass spectrometry and ^1H NMR (data not shown) and then was independently resynthesized at Vanderbilt University (VU).
(1 picture or pasted object on this page, not shown here)

[2] = Plasma protein binding, human plasma; assay type: in vitro ADME; details: pH 7.4, read-out: human PPB fu
[3] = Buffer-only incubation (KPI or Tyrode's HP buffer), compound stability; assay type: physicochemical; details: potassium phosphate (KPI) or Tyrode's buffer (HP), no microsomes
Description: Mammalian liver microsomes include CYPs, flavin monooxygenases (FMOs), glucuronosyltransferases ([…]), and esterases as part of their enzyme composition. In the presence of NADPH, which serves as a cofactor for CYP- and FMO-dependent reactions, the observed activity can be attributed to these enzymes. Similarly, UGTs require the cofactor uridine diphosphate glucuronic acid (UDPGA). Therefore, when NADPH and UDPGA are absent, any reduction in the compound can be ascribed only to esterase activity or chemical instability. […] This is based on two factors: (1) the stability of the compounds in HP buffer, which is used in the platelet assays, and (2) the low probability of drug metabolism occurring within the platelets themselves. Together, these minimize the chance that any metabolites with distinct PAR4 potencies could confound the results. By comparing the area under the curve of the compound metabolized from the microsomal incubations in the presence or absence of NADPH to the corresponding area under the curve of the buffer-only incubation, the percent contribution of CYPs and FMOs and esterases were estimated (Table S1). The major contributing enzyme toward the metabolism of 12 is esterases in both the human (96%) and mouse (98%). In contrast, the metabolism of 31 was primarily driven by CYPs and FMOs in both HLM (80%) and MLM (88%).
Supplem ental Fig ure S5 . Depletion of 12 over time in the presence (ν) or absence (λ) of NADPH. Incubations w e re carried out in the presence of human (A) or mouse (B) li ver microsomes or without microsomes but in either KPI (C) or HP (D) buffer. […] Error bars smaller than the symbols a re not visible. […]
Supplem ental Figure S6. […] Values a re expressed as percentage of compound remaining at ea ch time compared with time 0 min and represent the mean ± SD (n = 3). […]
Supplem ental Fig ure S7 . […] Values a re expressed as percentage of compound remaining at ea ch time co mpa red with time 0 min and represent the mean ± SD (n = 3). […]

[4] = target: T1, PAR1 (Homo sapiens, UniProt P25116); assay: PAR1 component of α-thrombin activation (α-thrombin + BMS-3) in platelets; assay type: cell-based; details: read-out: PAR1 IC50 (Figure 6D)
T1 construct: endogenous in cells; host or cells: platelets
T1 sequence (P25116 22-425): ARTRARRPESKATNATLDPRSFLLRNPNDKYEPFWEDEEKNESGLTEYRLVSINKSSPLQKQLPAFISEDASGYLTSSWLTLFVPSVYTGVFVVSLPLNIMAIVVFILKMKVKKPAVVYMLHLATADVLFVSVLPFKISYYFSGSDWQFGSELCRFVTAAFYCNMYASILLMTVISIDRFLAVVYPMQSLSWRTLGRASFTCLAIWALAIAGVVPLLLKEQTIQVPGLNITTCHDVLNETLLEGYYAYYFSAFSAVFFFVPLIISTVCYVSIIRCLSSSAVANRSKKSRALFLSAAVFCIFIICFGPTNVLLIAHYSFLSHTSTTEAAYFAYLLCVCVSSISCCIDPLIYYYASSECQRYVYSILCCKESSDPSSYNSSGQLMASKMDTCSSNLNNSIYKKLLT
Description: Figure 6 (A) Distribution of IC50 values for the inhibition of human PAR4 vs mouse PAR4. Red indicates the 2 compounds highlighted in panels (B–D). (B) Structures of exemplar compounds. (C) Concentration–response curves for human vs mouse PAR4. (D) Concentration–response curves for the inhibition of pharmacologically defined α-thrombin components for PAR1 (α-thrombin + BMS-3) vs PAR4 (α-thrombin + vorapaxar).
α-thrombin activates both PAR1 and PAR4, and the individual PAR1 or PAR4 component can be isolated pharmacologically. […] With 20 substitutions between PAR1 and PAR4 within 5 Å of the predicted 31 binding site, the basis for these selectivity differences is not known (Figure S4). As we continue to probe for a selective PAR4 antagonist, mutagenesis of individual residues will be conducted.

[5] = target: T2, PAR4 (Homo sapiens, UniProt Q96RI0); assay: Schild analysis, progressive fold-shift against γ-thrombin in platelets; assay type: cell-based; set-up: endogenous in cells; host or cells: platelets; details: for mode of inhibition: against γ-thrombin activation; for Schild plot slope m: slope of linear regression, γ-thrombin, 20 min pretreatment
T2 sequence (Q96RI0 18-385): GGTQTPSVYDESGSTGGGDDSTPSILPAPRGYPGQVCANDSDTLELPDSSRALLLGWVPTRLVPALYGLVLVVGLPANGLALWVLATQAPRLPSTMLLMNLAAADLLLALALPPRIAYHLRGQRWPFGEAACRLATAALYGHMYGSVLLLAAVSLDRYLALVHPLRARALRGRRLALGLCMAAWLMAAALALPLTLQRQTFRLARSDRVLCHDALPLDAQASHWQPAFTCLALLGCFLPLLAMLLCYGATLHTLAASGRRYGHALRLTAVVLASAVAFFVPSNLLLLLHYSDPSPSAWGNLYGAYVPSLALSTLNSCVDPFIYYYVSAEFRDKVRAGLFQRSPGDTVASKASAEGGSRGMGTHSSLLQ
Protocol: A Schild analysis was performed on compounds 12 and 31 to determine the mode of inhibition of these compounds.
Figure 7 Schild analysis progressive fold-shift experiments. (A) Platelets were pretreated with increasing concentrations of each antagonist for 20 min prior to activation with increasing concentrations of γ-thrombin. (B) Logarithmic transformation of the dose ratio plotted versus the logarithm of compound concentration. m = slope of linear regression. TEXT PRINTED IN THE PICTURE: (B) 12: m = 0.99 | (D) 31: m = 0.95

SMILES	direct inhibition of thrombin enzymatic activity [1]	fraction unbound at 4 h [2]	loss of compound over time in buffer only [3]	IC50 [4] [µM]	mode of inhibition [5]	Schild plot slope m [5]
Cc1nc(NC(=O)c2cc(-c3ccccc3)n(-c3ccccc3)n2)n[nH]1 [Compound 7]	do not inhibition; also recorded: failed to directly inhibit	–	–	–	–	–
Cc1cc(C(=O)Nc2n[nH]c(OC(F)F)n2)nn1-c1ccccc1 [Compound 9]	do not inhibition	0.036	–	–	–	–
Cn1nc(C(=O)Nc2n[nH]c(-c3c(F)cccc3F)n2)cc1C1CC1 [Compound 12]	–	0.052	little loss of compound over time	5.81	competitive	0.99
O=C(Nc1nc[nH]n1)c1nn(-c2ccccc2)c2c1CCC2 [Compound 17]	–	0.029	little loss of compound over time	–	–	–
O=C(Nc1n[nH]c(-c2ccc(F)cc2F)n1)c1nn(-c2ccccc2)c2c1CCCC2 [Compound 31]	–	0.015	little loss of compound over time	1.51	competitive	0.95
COc1cccc(-c2nc(NC(=O)c3nn(-c4ccccc4)c4c3CCCC4)n[nH]2)c1 [Compound 32]	–	0.007	–	–	–	–
